In patent publication US7910751B2, “Heterocyclidene acetamide derivative” (Mochida Pharmaceutical Co., Ltd., priority 2005, dated 2011):

The compounds below were run against T1, human TRPV1 (Homo sapiens, UniProt Q8NER1) (assay: Measurement of capsaicin-induced Ca influx in human TRPV1 transformed CHO cell line using FDSS-6000). Conditions: concentration at which the capsaicin concentration-reaction curve is shifted two times to the right, human TRPV1 transformed CHO cells.
T1 construct: expressed in transfected cells; host or cells: CHO-K1
Format: cell-based

T1 sequence (Q8NER1 whole entry): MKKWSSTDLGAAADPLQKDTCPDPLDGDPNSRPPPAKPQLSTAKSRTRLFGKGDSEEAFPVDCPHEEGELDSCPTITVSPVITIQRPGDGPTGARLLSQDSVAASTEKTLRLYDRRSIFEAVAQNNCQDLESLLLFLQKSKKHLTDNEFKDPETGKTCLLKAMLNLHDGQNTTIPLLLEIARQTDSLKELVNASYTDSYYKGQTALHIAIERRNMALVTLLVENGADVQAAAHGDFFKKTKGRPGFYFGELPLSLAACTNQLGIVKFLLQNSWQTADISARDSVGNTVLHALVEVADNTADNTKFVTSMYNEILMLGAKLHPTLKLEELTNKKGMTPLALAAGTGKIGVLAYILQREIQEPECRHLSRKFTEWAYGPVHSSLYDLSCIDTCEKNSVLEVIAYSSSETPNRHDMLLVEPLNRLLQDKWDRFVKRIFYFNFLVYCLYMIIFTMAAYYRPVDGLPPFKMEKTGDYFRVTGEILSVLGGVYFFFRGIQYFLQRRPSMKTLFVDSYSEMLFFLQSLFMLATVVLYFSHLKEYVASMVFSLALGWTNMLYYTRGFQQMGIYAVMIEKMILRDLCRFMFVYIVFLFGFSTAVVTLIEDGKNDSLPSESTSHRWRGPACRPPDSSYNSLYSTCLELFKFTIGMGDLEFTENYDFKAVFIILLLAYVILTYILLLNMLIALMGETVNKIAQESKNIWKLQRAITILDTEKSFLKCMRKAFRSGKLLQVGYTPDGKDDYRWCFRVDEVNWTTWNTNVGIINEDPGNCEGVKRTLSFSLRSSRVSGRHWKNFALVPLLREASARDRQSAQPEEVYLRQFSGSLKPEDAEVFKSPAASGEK

Row | SMILES | A2 VALUE
1 | O=C(/C=C1\CCCOc2cc(C(F)(F)F)ccc21)Nc1cccc2c1CC(O)CN2 (centres unmarked) [Example 218, (E)-2-(8-trifluoromethyl-3,4-dihydrobenzo[b]oxepin-5(2H)-ylidene)-N-(3-hydroxy-1,2,3,4-tetrahydroquinolin-5-yl)acetamide] | A (compounds of the present invention having an A2 value of less than 100 nM are represented by A)
2 | O=C(/C=C1\CCCOc2cc(C(F)(F)F)ccc21)Nc1cccc2c1CC(O)CN2 (centres unmarked) [Example 219, (E)-2-(8-trifluoromethyl-3,4-dihydrobenzo[b]oxepin-5(2H)-ylidene)-N-(3-hydroxy-1,2,3,4-tetrahydroquinolin-5-yl)acetamide] | A (compounds of the present invention having an A2 value of less than 100 nM are represented by A)
3 | CC1(O)CCc2cccc(NC(=O)/C=C3\CCCOc4cc(C(F)(F)F)ccc43)c2C1 (centres unmarked) [Example 220, (E)-2-(8-trifluoromethyl-3,4-dihydrobenzo[b]oxepin-5(2H)-ylidene)-N-(7-hydroxy-7-methyl-5,6,7,8-tetrahydronaphthalen-1-yl)acetamide] | A (compounds of the present invention having an A2 value of less than 100 nM are represented by A)
4 | Cc1sc2cnccc2c1NC(=O)/C=C1\CCCOc2cc(C(F)(F)F)ccc21 [Example 221, (E)-2-(8-trifluoromethyl-3,4-dihydrobenzo[b]oxepin-5(2H)-ylidene)-N-(2-methylthieno[2,3-c]pyridin-3-yl)acetamide] | A (compounds of the present invention having an A2 value of less than 100 nM are represented by A)
5 | O=C(/C=C1\CCCOc2cc(C(F)(F)F)ccc21)Nc1ncc(CO)cc1Cl [Example 224, (E)-2-(8-trifluoromethyl-3,4-dihydrobenzo[b]oxepin-5(2H)-ylidene)-N-(3-chloro-5-hydroxymethyl-2-pyridyl)acetamide] | B (compounds having an A2 value of 100 nM or more are represented by B)
6 | O=C(/C=C1\CCCOc2cc(C(F)(F)F)ccc21)NCCc1cccc2c1CC(O)CC2 (centres unmarked) [Example 226, (E)-2-(8-trifluoromethyl-3,4-dihydrobenzo[b]oxepin-5(2H)-ylidene)-N-(2-(7-hydroxy-5,6,7,8-tetrahydronaphthalen-1-yl)ethyl)acetamide] | A (compounds of the present invention having an A2 value of less than 100 nM are represented by A)
7 | CC(CNC(=O)/C=C1\CCCOc2cc(C(F)(F)F)ccc21)c1cccc2c1CC(O)CC2 (centres unmarked) [Example 227, (E)-2-(8-trifluoromethyl-3,4-dihydrobenzo[b]oxepin-5(2H)-ylidene)-N-(2-(7-hydroxy-5,6,7,8-tetrahydronaphthalen-1-yl)propyl)acetamide] | A (compounds of the present invention having an A2 value of less than 100 nM are represented by A)
8 | O=C(/C=C1\CCCOc2cc(C(F)(F)F)ccc21)Nc1cccc(N2CCCC2CO)c1 (centres unmarked) [Example 229] | B (compounds having an A2 value of 100 nM or more are represented by B)
9 | O=C(/C=C1\CCCOc2cc(C(F)(F)F)ccc21)Nc1ccc2c(c1)N(C(=O)CO)CCO2 [Example 231] | B (compounds having an A2 value of 100 nM or more are represented by B)
10 | O=C(/C=C1\CCCOc2cc(C(F)(F)F)ccc21)Nc1ccc2c(c1)N(CCO)CCO2 [Example 233] | A (compounds of the present invention having an A2 value of less than 100 nM are represented by A)
11 | O=C(/C=C1\CCCOc2cc(C(F)(F)F)ccc21)Nc1ccc2c(c1)N(CCO)C(=O)CO2 [Example 234, (E)-2-(8-trifluoromethyl-3,4-dihydrobenzo[b]oxepin-5(2H)-ylidene)-N-(4-(2-hydroxyethyl)-2H-1,4-benzoxazin-3(4H)-on-6-yl)acetamide] | A (compounds of the present invention having an A2 value of less than 100 nM are represented by A)
12 | O=C(/C=C1\CCOc2nc(C(F)(F)F)ccc21)Nc1cccc2c1CC(O)CC2 (centres unmarked) [Example 238, (E)-2-(7-trifluoromethyl-3,4-dihydro-2H-pyrano[2,3-b]pyridin-4-ylidene)-N-(7-hydroxy-5,6,7,8-tetrahydronaphthalen-1-yl)acetamide] | A (compounds of the present invention having an A2 value of less than 100 nM are represented by A)
13 | O=C(/C=C1\CCCOc2nc(C(F)(F)F)ccc21)Nc1cccc2c1CC(O)CC2 (centres unmarked) [Example 239, (E)-2-(8-trifluoromethyl-2,3,4,5-tetrahydrooxepino[2,3-b]pyridin-5-ylidene)-N-(7-hydroxy-5,6,7,8-tetrahydronaphthalen-1-yl)acetamide] | A (compounds of the present invention having an A2 value of less than 100 nM are represented by A)
14 | CC1(C)N/C(=C\C(=O)Nc2cccc3c2CC(O)CC3)c2ccc(C(F)(F)F)cc2O1 (centres unmarked) [Example 240, (Z)-2-(6-trifluoromethyl-3,3-dimethyl-4-oxa-3,4-dihydro-(2H)-isoquinolin-1-ylidene)-N-(7-hydroxy-5,6,7,8-tetrahydronaphthalen-1-yl)acetamide] | A (compounds of the present invention having an A2 value of less than 100 nM are represented by A)
15 | CC1(C)C/C(=C\C(=O)Nc2cccc3c2CC(O)CC3)c2ccc(C(F)(F)F)cc2O1 (centres unmarked) [Example 241, (E)-2-(7-trifluoromethyl-2,2-dimethylchroman-4-ylidene)-N-(7-hydroxy-5,6,7,8-tetrahydronaphthalen-1-yl)acetamide] | A (compounds of the present invention having an A2 value of less than 100 nM are represented by A)
16 | CC1(C)C/C(=C\C(=O)Nc2cccc3c2CC(O)CC3)c2ccc(C(F)(F)F)cc2O1 (centres unmarked) [Example 242, (E)-2-(7-trifluoromethyl-2,2-dimethylchroman-4-ylidene)-N-(7-hydroxy-5,6,7,8-tetrahydronaphthalen-1-yl)acetamide] | A (compounds of the present invention having an A2 value of less than 100 nM are represented by A)
17 | CC1(C)C/C(=C\C(=O)Nc2cccc3c2CC(O)CC3)c2ccc(C(F)(F)F)cc2O1 (centres unmarked) [Example 243, (E)-2-(7-trifluoromethyl-2,2-dimethylchroman-4-ylidene)-N-(7-hydroxy-5,6,7,8-tetrahydronaphthalen-1-yl)acetamide] | A (compounds of the present invention having an A2 value of less than 100 nM are represented by A)
18 | CC1(C)C/C(=C\C(=O)Nc2cccc3c2CC(O)CN3)c2ccc(C(F)(F)F)cc2O1 (centres unmarked) [Example 244, (E)-2-(7-trifluoromethyl-2,2-dimethylchroman-4-ylidene)-N-(3-hydroxy-1,2,3,4-tetrahydroquinolin-5-yl)acetamide] | A (compounds of the present invention having an A2 value of less than 100 nM are represented by A)
19 | CC1(C)C/C(=C\C(=O)Nc2cccc3c2CC(O)CN3)c2ccc(C(F)(F)F)cc2O1 (centres unmarked) [Example 245, (E)-2-(7-trifluoromethyl-2,2-dimethylchroman-4-ylidene)-N-(3-hydroxy-1,2,3,4-tetrahydroquinolin-5-yl)acetamide] | A (compounds of the present invention having an A2 value of less than 100 nM are represented by A)
20 | CC1(C)C/C(=C\C(=O)Nc2cccc3c2CC(O)CN3)c2ccc(C(F)(F)F)cc2O1 (centres unmarked) [Example 246, (E)-2-(7-trifluoromethyl-2,2-dimethylchroman-4-ylidene)-N-(3-hydroxy-1,2,3,4-tetrahydroquinolin-5-yl)acetamide] | A (compounds of the present invention having an A2 value of less than 100 nM are represented by A)
21 | O=C(/C=C1/CCCOc2cc(C(F)(F)F)ccc21)Nc1ccc2cccnc2c1 [Example 247, (Z)-2-(8-trifluoromethyl-3,4-dihydrobenzo[b]oxepin-5(2H)-ylidene)-N-(quinolin-7-yl)acetamide] | A (compounds of the present invention having an A2 value of less than 100 nM are represented by A)
22 | O=C(/C=C1\CCCOc2cc(C(F)(F)F)c(F)cc21)Nc1cccc2c1CC(O)CC2 (centres unmarked) [Example 248, (E)-2-(7-fluoro-8-trifluoromethyl-3,4-dihydrobenzo[b]oxepin-5-(2H)-ylidene)-N-(7-hydroxy-5,6,7,8-tetrahydronaphthalen-1-yl)acetamide] | A (compounds of the present invention having an A2 value of less than 100 nM are represented by A)
23 | O=C(/C=C1\CC2(CCC2)Oc2cc(C(F)(F)F)ccc21)Nc1cccc2c1CC(O)CC2 (centres unmarked) [Example 251, (E)-2-(7-trifluoromethyl-2,2-cyclobutylchroman-4-ylidene)-N-(7-hydroxy-5,6,7,8-tetrahydronaphthalen-1-yl)acetamide] | A (compounds of the present invention having an A2 value of less than 100 nM are represented by A)
24 | O=C(/C=C1\CC2(CCC2)Oc2cc(C(F)(F)F)ccc21)Nc1cccc2c1CC(O)CN2 (centres unmarked) [Example 252, (E)-N-(3-hydroxy-1,2,3,4-tetrahydroquinolin-5-yl)-2-(7-trifluoromethyl-2,2-cyclobutylchroman-4-ylidene)acetamide] | A (compounds of the present invention having an A2 value of less than 100 nM are represented by A)
25 | O=C(/C=C1\CCCOc2cc(C(F)(F)F)ccc21)Nc1cccc2[nH]ncc12 [Example 253, (E)-2-(8-trifluoromethyl-3,4-dihydrobenzo[b]oxepin-5(2H)-ylidene)-N-(1H-indazol-4-yl)acetamide] | A (compounds of the present invention having an A2 value of less than 100 nM are represented by A)
26 | O=C(/C=C1\CCCOc2cc(C(F)(F)F)ccc21)Nc1cccc2cn[nH]c12 [Example 254, (E)-2-(8-trifluoromethyl-3,4-dihydrobenzo[b]oxepin-5(2H)-ylidene)-N-(1H-indazol-7-yl)acetamide] | A (compounds of the present invention having an A2 value of less than 100 nM are represented by A)
